Assay results published in ChEMBL document CHEMBL5360588, “LC-MS-Guided Isolation of Cyanogripeptides A-C, Cyclolipopeptides with β-Methyl-Leucine Residues, from an Actinoalloteichus cyanogriseus LHW52806” (J Nat Prod, 2023).
Converted amounts (≈) assume the structure as drawn.

Assays:
[1] = system: Mycolicibacterium smegmatis; test: Antibacterial activity against Mycolicibacterium smegmatis ATCC607 assessed as inhibition of bacterial growth measured after 3 days by broth microdilution assay; format: functional; conditions: ATCC607, 72 h, time 3 day
[2] = system: Helicobacter pylori; test: Antibacterial activity against Helicobacter pylori 26695 assessed as inhibition of bacterial growth measured after 3 days by broth microdilution assay; format: functional; conditions: Helicobacter pylori, 26695, 72 h; time 3 day
[3] = system: Helicobacter pylori; test: Antibacterial activity against Helicobacter pylori G27 assessed as inhibition of bacterial growth measured after 3 days by broth microdilution assay; format: functional; conditions: G27, 72 h, time 3 day
[4] = system: PC-9; test: Antiproliferative activity against human PC-9 cells assessed as inhibition of cell growth measured after 72 by Cell titre-glo assay; format: functional, cell-based
[5] = system: A2780; test: Antiproliferative activity against human A2780 cells assessed as inhibition of cell growth measured after 72 by Cell titre-glo assay; format: functional, cell-based
[6] = system: U-937; test: Antiproliferative activity against human U-937 cells assessed as inhibition of cell growth measured after 72 by Cell titre-glo assay; format: functional, cell-based
[7] = system: Raji; test: Antiproliferative activity against human Raji cells assessed as inhibition of cell growth measured after 72 by Cell titre-glo assay; format: functional, cell-based
[8] = system: Daudi; test: Antiproliferative activity against human Daudi cells assessed as inhibition of cell growth measured after 72 by Cell titre-glo assay; format: functional, cell-based
[9] = system: PC-3; test: Antiproliferative activity against human PC-3 cells assessed as inhibition of cell growth measured after 72 by Cell titre-glo assay; format: functional, cell-based
[10] = system: HT-29; test: Antiproliferative activity against human HT-29 cells assessed as inhibition of cell growth measured after 72 by Cell titre-glo assay; format: functional, cell-based
[11] = system: NB-4; test: Antiproliferative activity against human NB4 cells assessed as inhibition of cell growth measured after 72 by Cell titre-glo assay; format: functional, cell-based

SMILES	MIC [1]	MIC [2]	MIC [3]	IC50 [4]	IC50 [5]	IC50 [6]	IC50 [7]	IC50 [8]	IC50 [9]	IC50 [10]	IC50 [11]
CC(C)CCCCC(=O)N[C@@H](CC(C)C)C(=O)N[C@H](CCCNC(=N)N)C(=O)N[C@@H]1C(=O)N[C@@H]([C@@H](C)C(C)C)C(=O)NCC(=O)N[C@@H]([C@H](C)C(C)C)C(=O)O[C@@H]1C	32 µg/mL (≈ 39.6 µM)	32 µg/mL (≈ 39.6 µM)	32 µg/mL (≈ 39.6 µM)	> 20 µM	> 20 µM	> 20 µM	> 20 µM	> 20 µM	> 20 µM	> 20 µM	> 20 µM
CC(C)C[C@H](NC(=O)Cc1ccccc1)C(=O)N[C@H](CCCNC(=N)N)C(=O)N[C@@H]1C(=O)N[C@@H]([C@@H](C)C(C)C)C(=O)NCC(=O)N[C@@H]([C@H](C)C(C)C)C(=O)O[C@@H]1C	–	–	–	> 20 µM	> 20 µM	> 20 µM	> 20 µM	> 20 µM	> 20 µM	> 20 µM	> 20 µM
CC(C)CCC(=O)N[C@@H](CC(C)C)C(=O)N[C@H](CCCNC(=N)N)C(=O)N[C@@H]1C(=O)N[C@@H]([C@@H](C)C(C)C)C(=O)NCC(=O)N[C@@H]([C@H](C)C(C)C)C(=O)O[C@@H]1C	–	–	–	> 20 µM	> 20 µM	> 20 µM	> 20 µM	> 20 µM	> 20 µM	> 20 µM	> 20 µM
